Assay [1] has as its target T1, Replicative DNA helicase DnaB (Mycobacterium tuberculosis, UniProt P9WMR3).
T1 sequence (P9WMR3 whole entry): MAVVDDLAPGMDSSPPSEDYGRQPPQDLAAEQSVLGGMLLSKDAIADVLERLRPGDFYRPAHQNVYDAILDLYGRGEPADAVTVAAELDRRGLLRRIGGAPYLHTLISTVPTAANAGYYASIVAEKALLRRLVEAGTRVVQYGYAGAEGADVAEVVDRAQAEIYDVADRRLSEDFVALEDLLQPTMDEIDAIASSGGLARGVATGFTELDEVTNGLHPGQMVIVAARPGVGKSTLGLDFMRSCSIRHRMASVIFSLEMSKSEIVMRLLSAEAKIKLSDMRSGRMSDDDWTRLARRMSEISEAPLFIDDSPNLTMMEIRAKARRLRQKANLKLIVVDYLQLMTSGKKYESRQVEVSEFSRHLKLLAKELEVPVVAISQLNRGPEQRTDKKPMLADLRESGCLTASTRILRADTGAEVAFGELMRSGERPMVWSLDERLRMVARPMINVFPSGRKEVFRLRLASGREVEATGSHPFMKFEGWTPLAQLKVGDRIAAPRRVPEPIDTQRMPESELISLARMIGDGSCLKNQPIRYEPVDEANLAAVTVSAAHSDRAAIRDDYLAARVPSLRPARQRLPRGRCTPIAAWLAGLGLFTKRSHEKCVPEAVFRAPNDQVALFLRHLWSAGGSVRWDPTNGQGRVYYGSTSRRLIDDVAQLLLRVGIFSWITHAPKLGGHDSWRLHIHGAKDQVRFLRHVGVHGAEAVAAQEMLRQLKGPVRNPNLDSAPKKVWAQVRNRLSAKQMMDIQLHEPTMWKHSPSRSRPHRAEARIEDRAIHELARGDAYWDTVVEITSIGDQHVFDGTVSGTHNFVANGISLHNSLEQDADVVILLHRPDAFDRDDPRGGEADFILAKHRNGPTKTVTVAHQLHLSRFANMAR
In words: DnaB intein splicing inhibitors, dose response, biochemical, cell-free fluorescence (AID 449749). Format: functional.

The next assay concerns the target T2, Protein RecA (Mycobacterium tuberculosis, UniProt P9WHJ3).
T2 sequence (P9WHJ3 whole entry): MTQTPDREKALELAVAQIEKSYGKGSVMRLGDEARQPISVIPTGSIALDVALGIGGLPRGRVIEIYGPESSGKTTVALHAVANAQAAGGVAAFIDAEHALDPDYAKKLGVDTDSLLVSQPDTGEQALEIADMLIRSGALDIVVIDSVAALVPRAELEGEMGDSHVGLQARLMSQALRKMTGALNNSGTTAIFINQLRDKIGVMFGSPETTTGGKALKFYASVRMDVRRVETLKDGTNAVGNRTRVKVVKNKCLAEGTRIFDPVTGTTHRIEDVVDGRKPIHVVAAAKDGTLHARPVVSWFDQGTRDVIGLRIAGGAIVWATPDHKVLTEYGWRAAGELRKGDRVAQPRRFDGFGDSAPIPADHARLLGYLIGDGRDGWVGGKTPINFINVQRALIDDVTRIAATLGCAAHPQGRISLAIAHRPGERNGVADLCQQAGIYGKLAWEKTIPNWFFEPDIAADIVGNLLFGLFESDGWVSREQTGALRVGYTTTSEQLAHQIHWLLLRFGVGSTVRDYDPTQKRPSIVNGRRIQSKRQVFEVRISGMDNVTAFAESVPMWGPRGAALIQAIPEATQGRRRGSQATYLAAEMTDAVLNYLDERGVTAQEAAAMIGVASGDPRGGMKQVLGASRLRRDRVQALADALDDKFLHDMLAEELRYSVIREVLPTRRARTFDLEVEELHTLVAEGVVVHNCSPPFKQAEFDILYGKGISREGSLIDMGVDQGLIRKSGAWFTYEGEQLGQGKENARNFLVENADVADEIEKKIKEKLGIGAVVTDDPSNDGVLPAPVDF
In words: Fluorescence Cell-Free Homogeneous Dose Retest to Identify Inhibitors of RecA-Intein Splicing Activity. [Related pubchem assays (depositor defined):AID2097, AID2223, AID489010, AID492950]. Format: functional.

The target in assay [2] is FAD-linked sulfhydryl oxidase ALR (Homo sapiens, UniProt P55789). In words: ALR-catalysed DTT oxidation blockers – biochemical, H2O2 detection, luminescence, cherry-pick, dose response (AID 493248).
Sequence of FAD-linked sulfhydryl oxidase ALR (P55789 whole entry): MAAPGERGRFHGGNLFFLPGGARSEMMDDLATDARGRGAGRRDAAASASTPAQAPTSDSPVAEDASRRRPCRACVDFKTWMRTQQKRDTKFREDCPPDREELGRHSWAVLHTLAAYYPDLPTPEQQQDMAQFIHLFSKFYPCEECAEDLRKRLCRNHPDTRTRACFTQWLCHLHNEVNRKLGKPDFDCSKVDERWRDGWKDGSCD
The nature of assay [3]: viability of uninfected HEp-2 cells – cell-based, HTS, cytotoxicity control for RSV inhibitor project, dose response (AID 2410). Format: functional. The settings on record: human respiratory syncytial virus.
Assay [4] relates to Streptococcus sp. 'group A'. The assay can be described thus: Streptococcus pyogenes SK(-)GAS viability under kanamycin – luminescence, BacTiterGlo, confirmation, counter-screen for streptokinase expression inhibitor project, dose response (AID 1900). Format: functional, organism-based. On the technique in general: The purpose of a counterscreen is to sort out artefacts and off-target activity.

The next assay concerns the target T3, Streptokinase A (Streptococcus pyogenes serotype M1, UniProt P10520).
T3 sequence (P10520 whole entry): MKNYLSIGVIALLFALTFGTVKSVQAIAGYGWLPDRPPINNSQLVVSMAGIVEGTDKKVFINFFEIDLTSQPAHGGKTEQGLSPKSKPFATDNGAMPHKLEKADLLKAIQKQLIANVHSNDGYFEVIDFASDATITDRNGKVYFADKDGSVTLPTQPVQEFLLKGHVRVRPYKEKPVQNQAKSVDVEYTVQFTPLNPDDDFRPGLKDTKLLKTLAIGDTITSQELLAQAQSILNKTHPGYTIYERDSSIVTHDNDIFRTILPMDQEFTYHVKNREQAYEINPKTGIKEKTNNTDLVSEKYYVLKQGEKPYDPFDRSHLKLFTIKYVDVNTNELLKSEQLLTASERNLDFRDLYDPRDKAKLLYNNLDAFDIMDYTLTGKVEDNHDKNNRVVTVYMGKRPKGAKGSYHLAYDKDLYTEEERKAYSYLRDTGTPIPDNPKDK
The assay can be described thus: viability-normalized secreted streptokinase activity reduction – plasminogen activation absorbance, OD405, dose response (AID 1914).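 Note: secreted streptokinase activity via plasminogen activation per viability signal from cell pellet.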 Type of assay: functional, Streptococcus pyogenes M1 GAS.

Another assay deals with Streptococcus. The assay can be described thus: GAS UMAA2166 growth inhibition – luminescence, BacTiterGlo, counter-screen for streptokinase expression inhibitor project, dose response (AID 1915).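 Note: potency for reduction of bacterial viability or growth.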 Type of assay: functional, organism-based.
Another assay has as its target Nonstructural protein 1 (Influenza A virus, UniProt Q194T2). Type of assay: functional, Influenza A virus (A/California/07/2009(H1N1)).
A further assay concerns the target Cytochrome P450 3A4 (Homo sapiens, UniProt P08684).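 Note: CYP3A4 tested as one member of a cytochrome P450 panel screen.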
Assay [5] in a line: Trypanosoma cruzi growth suppression in host cells – NIH3T3 host cells, beta-gal luminescence, confirmation (AID 2044).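 Note: intracellular parasites grown in NIH/3T3 mouse fibroblasts as host cells; luminescent beta-galactosidase reporter signal from transgenic T. cruzi replicating inside host cells; inhibitors lower the luminescence signal.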 Format: functional, cell-based.
Assay [6] can be described thus: NIH3T3 cell viability loss – ATP luminescence, mouse fibroblasts, counter-screen, dose response (AID 2010).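 Note: cells exposed to compound for about 90 hours before reading.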 Format: functional, cell-based.
Assay [7] in a line: microbe, parasite or virus in culture. Format: functional. The settings on record: Mycobacterium tuberculosis.
Assay [8] is described as follows: reduction of Shn3 3'UTR-driven luciferase in osteoblasts – cell-based, Clone20 osteoblasts, firefly luciferase, cherry-picked, dose response (AID 624132).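 Note: firefly luciferase luminescence from reporter carrying the Shn3 3'UTR in osteoblasts.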 Format: functional.
Assay [9] can be described thus: cells. Type of assay: functional, cell-based.
Assay [10] in a line: cells. Format: functional, cell-based. This is another data set of the same source.

The results in this text go back to ChEMBL document CHEMBL1201862, “PubChem BioAssay data set” (2004).

Calls of active or inactive are those of the source.

Sequence of Nonstructural protein 1 (Q194T2 whole entry): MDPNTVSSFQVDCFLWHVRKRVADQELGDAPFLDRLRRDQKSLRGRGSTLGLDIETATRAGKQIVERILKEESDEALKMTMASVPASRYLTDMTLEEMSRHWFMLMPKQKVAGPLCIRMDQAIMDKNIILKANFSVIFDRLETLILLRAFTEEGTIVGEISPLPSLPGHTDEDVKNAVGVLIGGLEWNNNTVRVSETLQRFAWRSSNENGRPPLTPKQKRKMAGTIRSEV
Sequence of Cytochrome P450 3A4 (P08684 whole entry): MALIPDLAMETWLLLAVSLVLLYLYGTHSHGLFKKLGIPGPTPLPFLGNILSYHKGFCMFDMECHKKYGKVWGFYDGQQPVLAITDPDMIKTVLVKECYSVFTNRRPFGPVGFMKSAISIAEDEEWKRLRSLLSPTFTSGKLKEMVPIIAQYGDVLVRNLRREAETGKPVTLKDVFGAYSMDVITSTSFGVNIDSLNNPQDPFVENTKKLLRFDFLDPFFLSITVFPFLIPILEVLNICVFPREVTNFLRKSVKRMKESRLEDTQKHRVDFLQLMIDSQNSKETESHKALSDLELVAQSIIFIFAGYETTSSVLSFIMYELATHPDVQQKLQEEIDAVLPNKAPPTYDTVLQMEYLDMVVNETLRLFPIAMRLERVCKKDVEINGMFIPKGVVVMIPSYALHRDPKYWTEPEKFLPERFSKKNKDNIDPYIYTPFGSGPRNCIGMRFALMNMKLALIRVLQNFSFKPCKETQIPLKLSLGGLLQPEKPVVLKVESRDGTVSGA

A word on the AC50: it is the concentration at which the activity in the assay is half-maximal. One may read the EC50 as the concentration giving half of the maximal effect. For the compound `Cc1n[nH]c(O)c1C(c1ccc(O)c(Br)c1)c1c(C)n[nH]c1O`, the half-maximal activity concentration (AC50) in assay [1] was 0.326 µM (active). Besides, at Protein RecA, the EC50 is 0.232 µM (active). `Cc1cccc(N2CCN(C(=O)c3ccncc3)CC2C)c1` (configuration not stated): in assay [2], the AC50 was 9.32 µM (active). Turning to `N#CC1=C(N)Oc2[nH]nc(-c3cccs3)c2C1c1ccncc1` (configuration not stated), the half-maximal activity concentration (AC50) in assay [1] is 31 µM (active). Also, the half-maximal effective concentration (EC50) at Protein RecA is 5.36 µM (active). For `O=C(N/N=C/c1ccc(-c2ccccc2[N+](=O)[O-])o1)[C@H]1C[C@@H]1c1ccccc1`, in assay [3], the CC50 was 18.3 µM (active). For the same compound, in [1], the concentration at half-maximal activity (AC50) was 8.14 µM (active). Moreover, the 50% effective concentration (EC50) on Protein RecA is 18.9 µM (active). For `CC1=NN(c2ccccc2)C(=O)C1` [EDARAVONE], in assay [1], the AC50 was 2.75 µM (active). Moreover, the 50% effective concentration (EC50) at Protein RecA was 2.95 µM (active). On to `Nc1ccc(-c2cn3cccnc3n2)cc1`, for which the 50% effective concentration (EC50) (in assay [4]; at Streptokinase A; in the assay on Streptococcus) was > 150 µM (not active) throughout. Broadly, the IC50 is the point on the concentration scale where inhibition reaches its midpoint. In the case of `CCN(c1ccc(NC(=O)COC(=O)c2ccc3ccccc3n2)cc1)C(C)C`, the half-inhibitory concentration (IC50) at Nonstructural protein 1 was 93.5 µM (active). Further, the AC50 on Cytochrome P450 3A4 was 39.8 µM (inconclusive). `CC(C)(C)c1ccc(S(=O)(=O)N2CCC(c3nc4cc(Cl)ccc4[nH]3)CC2)cc1`: the EC50 was 5.2 µM (active) in assay [4]; 4.13 µM (active) on Streptokinase A; 2.97 µM (active) in assay [5]; > 60 µM (not active) in assay [6]; 45.8 µM (active) in the assay on Streptococcus. Turning to `COc1cccc(NC(=O)N2CCN(c3cccc(C)c3)C(C)C2)c1` (configuration not stated), the AC50 in assay [2] is 6.28 µM (active). Take `Fc1cccc2sc(Nc3nc4cc5c(cc4s3)OCO5)nc12`: the concentration giving a half-maximal response (EC50) (in [4]; on Streptokinase A; with Streptococcus) was > 150 µM (not active) each time. For the same compound, the CC50 in assay [7] was > 40 µM (active). Regarding `Sc1nnc(-c2cccc3ccccc23)n1-c1cccnc1`, the AC50 in assay [2] is 8.24 µM (active). Regarding `C/C(N)=C(/C#N)C(=O)CSc1nc2scc(-c3ccccc3)c2c(=O)n1C`, the EC50 in assay [4] was 1.8 µM (active); on Streptokinase A, > 150 µM (not active); in the assay with Streptococcus, 11.9 µM (active). For the compound `CCCOC(=O)c1ccc(OC(=O)c2ccco2)cc1`, the concentration at half-maximal activity (AC50) in assay [1] is 13 µM (active). On Protein RecA, the EC50 was 11.8 µM (active). As to `Oc1cccc(Nc2nc(-c3ccccc3Cl)nc3ccccc23)c1`, the CC50 in [3] is 27.1 µM (active). The concentration at half-maximal activity (AC50) in assay [1] was 138 µM (active). For the same compound, the EC50 at Protein RecA is > 380 µM (inactive). Take `CCCc1cc(C(=O)N2CCCC(N3CCN(c4ccc(F)cc4)CC3)C2)no1` (configuration not stated): the AC50 in assay [2] was > 100 µM (inactive). Consider `COc1ccc(C2C(C#N)=C(N)Nc3onc(C(C)(C)C)c32)c(OC)c1` (configuration not stated), for which the IC50 on Nonstructural protein 1 is > 100 µM (active). Regarding `Cc1csc(=O)n1CC(=O)OCC(=O)c1c(N)n(C)c(=O)n(C)c1=O`, the AC50 in [8] was 27.1 µM (active). With `COc1cccc(-n2c(S)nnc2CCn2nc(C)c([N+](=O)[O-])c2C)c1`, the AC50 in assay [2] is 10.6 µM (active).

In the case of `O=C1NC(=O)/C(=C/c2ccc(OS(=O)(=O)c3ccc(F)cc3F)cc2)N1`, the EC50 in “cells [9]” and in “cells [10]” was > 350 µM (not active) each time. With `Cc1ccc(N2C(=O)CSC2c2cccnc2)cc1F` (configuration not stated), in assay [2], the half-maximal activity concentration (AC50) was 0.193 µM (active).

As to `CCCCN1CC(COCc2ccccc2)Oc2cccc(Oc3cc(C)c(C)c(C)c3)c2S1(=O)=O` (configuration not stated), the half-maximal activity concentration (AC50) in assay [8] was 9.16 µM (active). With `N#CC(c1ccccc1)c1cnccn1` (configuration not stated), the AC50 in assay [1] is > 380 µM (inactive). For the same compound, at Protein RecA, the EC50 is > 380 µM (inactive). On to `Cc1cccc(Sc2c([N+](=O)[O-])ncn2C)c1`, for which the half-maximal activity concentration (AC50) in assay [2] was 0.265 µM (active). Consider `CN(C)c1cccc(C(=O)NCc2ccccc2)c1`, for which the AC50 in assay [2] was 5.25 µM (active). Consider `OCCN(Cc1cccnc1)Cc1ccccn1`, for which the half-inhibitory concentration (IC50) at Nonstructural protein 1 was 4.64 µM (active).
